Reference: US20250352555A1, “METHOD OF INCREASING IMMUNE CELL ACTIVATION AND/OR TREATING CANCER USING DIBENZOXAZEPINONES” (VASCULAR THERAPEUTICS PTY LTD, priority 2022, published 2025)
Several values for one entry are separate records, joined by “and”; a condition that tells them apart may be missing. Equal entries are not always repeated.

Experiments:
A375 cells = test: Migration assay (scratch), A375; type: cell-based, human; conditions: 1 μM, 24 h, with greater potency than SCH772984
Method: Migration assays. Cells were grown in medium containing 10% FBS in 6-well plates. The following day the cells were scratched with a sterile toothpick, washed with PBS, and incubated in medium containing 10% FBS and vehicle, BT2 or SCH772984 at 1 μM. At 0, 24 h and 48 h the cells were photographed under a 4× objective using an Olympus CKX41 microscope. To assess the effect of BT2 on melanoma cell migration, A375 and MeWo cells were incubated with 1 μM of BT2 or SCH772984, and A375 and MeWo migration into the denuded zone was quantified after 24 or 48 h, respectively.

Jurkat T cells = test: RNA-seq of Jurkat T cells; type: cell-based, human
Method: RNA-seq and bioinformatics analysis. Jurkat T cells were grown to confluence in 100 mm plates in complete medium and incubated with 10 μM BT2 or vehicle for 4 h. Total RNA was extracted using the RNeasy Mini Kit (Qiagen, cat. no. 74004) with modification. Briefly, cells were washed twice with pre-cooled 1×PBS and TRIzol reagent (Thermo Fisher Scientific cat. no. 15596026) was added to lyse the cells. Chloroform was added to the mixture before microfuge centrifugation at 13000 rpm for 15 min at 4° C. The upper aqueous layer containing total RNA was transferred to fresh microtubes, and isopropanol was added and loaded into RNeasy columns. Columns were washed with buffers RW1 and RPE. Total RNA was eluted from the column using ribonuclease-free water. Samples were submitted to the UNSW Ramaciotti Centre for Genomics for TruSeq Stranded mRNA-seq preparation and sequencing by One NextSeq 500 1×75 bp high-output flow cell with data output up to 400 M reads. Quality control of samples was set at >80% higher than Q30 at 1×75 bp.
RNA-seq reads were first assessed for quality using the tool FastQC (v0.11.8) www.bioinformatics.babraham.ac.uk/projects/fastqc/). The tool Salmon was used for quantifying transcript abundance from RNA-seq reads (Patro et al., 2017). The R package DESeq2 that incorporates a method for differential analysis of count data was then used to identify differentially expressed genes across specific comparisons (Love et al., 2014). This package was also used to perform principal component analysis. […] The ggplot2 R package was used to prepare bar plots, scatter plots, and density plots. The pheatmap R package was used to generate distance matrices, and clustered heatmaps. DESeq2 output was used to generate a ranked list for input into GSEA Pre-ranked (v6.0.12, Broad Institute) (Subramanian et al., 2005) for pathway analysis against the Curated (Canonical Pathway), Gene Ontology, and Hallmarks gene collections from MSigDb (Liberzon et al., 2015; Liberzon et al., 2011). Ranked scores were calculated by multiplying the sign of the log 2 fold change by the log 10 transformed adjusted p value. […] All immune response related gene sets were selected for display.
To gain insights into BT2's mode of action we conducted next generation RNA sequencing (RNA-seq) with extracts of Jurkat T cells exposed to 10 μM BT2 for 4 h.

CCOC(=O)Nc1ccc2c(c1)C(=O)N(CC)c1ccccc1O2 [BT2, (10-ethyl-11-oxo-10,11-dihydro-dibenzo[b,f][1,4]oxazepin-2-yl)-carbamic acid ethyl ester]
migration into the denuded zone (A375 cells): suppressed melanoma migration
ABCA4 gene expression, BT2 (Jurkat T cells; 10 μM BT2, 4 h, 3 replicates): 96.05 and 85.74 and 106.5
ACTA2 gene expression, BT2 (Jurkat T cells; 10 μM BT2, 4 h, 3 replicates): 643.6 and 663.2 and 658.1
ACTG2 gene expression, BT2 (Jurkat T cells; 10 μM BT2, 4 h, 3 replicates): 3514 and 3448 and 3526
ADAT3 gene expression, BT2 Test 1-3 (Jurkat T cells; 10 μM BT2, 4 h, 3 replicates): 32.66 and 24.79 and 20.09
ADCYAP1 gene expression, BT2 (Jurkat T cells; 10 μM BT2, 4 h, 3 replicates): 131.6 and 132.2 and 130.6
ARHGAP29 gene expression, BT2 (Jurkat T cells; 10 μM BT2, 4 h, 3 replicates): 550.4 and 556.8 and 506.4
ATF3 gene expression, BT2 (Jurkat T cells; 10 μM BT2, 4 h, 3 replicates): 975.9 and 937 and 1003
BACH2 gene expression, BT2 (Jurkat T cells; 10 μM BT2, 4 h, 3 replicates): 6174.2608 and 6260 and 6009.3283
CD248 gene expression, BT2 (Jurkat T cells; 10 μM BT2, 4 h, 3 replicates): 284.3 and 291.3 and 307.4
CREB5 gene expression, BT2 (Jurkat T cells; 10 μM BT2, 4 h, 3 replicates): 179.6 and 175.6 and 152.7
DMBT1 gene expression, BT2 (Jurkat T cells; 10 μM BT2, 4 h, 3 replicates): 193.1 and 180.8 and 166.8
DUSP8 gene expression, BT2 (Jurkat T cells; 10 μM BT2, 4 h, 3 replicates): 826.1 and 821.3 and 847
ENPP1 gene expression, BT2 (Jurkat T cells; 10 μM BT2, 4 h, 3 replicates): 2289 and 2283 and 2244
EPAS1 gene expression, BT2 (Jurkat T cells; 10 μM BT2, 4 h, 3 replicates): 332.3 and 428.7 and 372.8
FAM166A gene expression, BT2 Test 1-3 (Jurkat T cells; 10 μM BT2, 4 h, 3 replicates): 312.2 and 298.5 and 285.3
FERMT2 gene expression, BT2 (Jurkat T cells; 10 μM BT2, 4 h, 3 replicates): 3161.0909 and 3299 and 3249
FLNC gene expression, BT2 (Jurkat T cells; 10 μM BT2, 4 h, 3 replicates): 532.1 and 474.2 and 510.4
GBP1 gene expression, BT2 (Jurkat T cells; 10 μM BT2, 4 h, 3 replicates): 6844 and 6940 and 6949
GBP2 gene expression, BT2 (Jurkat T cells; 10 μM BT2, 4 h, 3 replicates): 343.9 and 332.6 and 320.5
HIST1H2AC gene expression, BT2 Test 1-3 (Jurkat T cells; 10 μM BT2, 4 h, 3 replicates): 62.43 and 67.15 and 71.34
HIST1H2AG gene expression, BT2 Test 1-3 (Jurkat T cells; 10 μM BT2, 4 h, 3 replicates): 51.87 and 40.29 and 74.35
HIST2H2BE gene expression, BT2 Test 1-3 (Jurkat T cells; 10 μM BT2, 4 h, 3 replicates): 35.54 and 54.75 and 51.24
IL2RA gene expression, BT2 (Jurkat T cells; 10 μM BT2, 4 h, 3 replicates): 168.1 and 193.2 and 169.8
JUN gene expression, BT2 (Jurkat T cells; 10 μM BT2, 4 h, 3 replicates): 4079.3537 and 4087 and 4015
JUND gene expression, BT2 (Jurkat T cells; 10 μM BT2, 4 h, 3 replicates): 7851.3391 and 7882 and 7703
KCNMB1 gene expression, BT2 (Jurkat T cells; 10 μM BT2, 4 h, 3 replicates): 1036.4075 and 994.8 and 1082
MAF gene expression, BT2 Test 1-3 (Jurkat T cells; 10 μM BT2, 4 h, 3 replicates): 49.95 and 50.62 and 48.23
MYL4 gene expression, BT2 (Jurkat T cells; 10 μM BT2, 4 h, 3 replicates): 896.2 and 889.4 and 904.3
NPAS4 gene expression, BT2 (Jurkat T cells; 10 μM BT2, 4 h, 3 replicates): 228.6 and 253.1 and 292.4
NTN1 gene expression, BT2 (Jurkat T cells; 10 μM BT2, 4 h, 3 replicates): 0 and 193.2 and 146.7
PRKCE gene expression, BT2 (Jurkat T cells; 10 μM BT2, 4 h, 3 replicates): 1433 and 1537 and 1488
PRRT1 gene expression, BT2 Test 1-3 (Jurkat T cells; 10 μM BT2, 4 h, 3 replicates): 20.17 and 22.73 and 60.28
SIRPB2 gene expression, BT2 (Jurkat T cells; 10 μM BT2, 4 h, 3 replicates): 112.4 and 120.9 and 128.6
SPECC1L-ADORA2A gene expression, BT2 (Jurkat T cells; 10 μM BT2, 4 h, 3 replicates): 209.4 and 316.1 and 206
TEAD3 gene expression, BT2 (Jurkat T cells; 10 μM BT2, 4 h, 3 replicates): 269.9 and 243.8 and 226.1
TIMP3 gene expression, BT2 (Jurkat T cells; 10 μM BT2, 4 h, 3 replicates): 202.7 and 212.8 and 228.1
TUBA1A gene expression, BT2 Test 1-3 (Jurkat T cells; 10 μM BT2, 4 h, 3 replicates): 4998 and 5147 and 5169
TUBA1B gene expression, BT2 Test 1-3 (Jurkat T cells; 10 μM BT2, 4 h, 3 replicates): 50484.2833 and 49034.778 and 49379.7789
TUBA1C gene expression, BT2 Test 1-3 (Jurkat T cells; 10 μM BT2, 4 h, 3 replicates): 9420 and 9004 and 9493
TUBA4A gene expression, BT2 Test 1-3 (Jurkat T cells; 10 μM BT2, 4 h, 3 replicates): 33.62 and 39.26 and 48.23
TUBB2A gene expression, BT2 Test 1-3 (Jurkat T cells; 10 μM BT2, 4 h, 3 replicates): 599.4 and 644.6 and 638
TUBB3 gene expression, BT2 Test 1-3 (Jurkat T cells; 10 μM BT2, 4 h, 3 replicates): 651.2 and 705.6 and 639
TUBB4B gene expression, BT2 Test 1-3 (Jurkat T cells; 10 μM BT2, 4 h, 3 replicates): 6034 and 5953 and 6048
ZYX gene expression, BT2 (Jurkat T cells; 10 μM BT2, 4 h, 3 replicates): 3059 and 3209 and 3141
ABCA4 log2Fold Change (Jurkat T cells; 10 μM BT2 vs vehicle, 4 h): 2.991
ACTA2 log2Fold Change (Jurkat T cells; 10 μM BT2 vs vehicle, 4 h): 1.228
ACTG2 log2Fold Change (Jurkat T cells; 10 μM BT2 vs vehicle, 4 h): 2.581
ADAT3 log2Fold Change (Jurkat T cells; 10 μM BT2 vs vehicle, 4 h): −1.31
ADCYAP1 log2Fold Change (Jurkat T cells; 10 μM BT2 vs vehicle, 4 h): 1.242
ARHGAP29 log2Fold Change (Jurkat T cells; 10 μM BT2 vs vehicle, 4 h): 1.497
ATF3 log2Fold Change (Jurkat T cells; 10 μM BT2 vs vehicle, 4 h): 1.019
BACH2 log2Fold Change (Jurkat T cells; 10 μM BT2 vs vehicle, 4 h): 1.126
CD248 log2Fold Change (Jurkat T cells; 10 μM BT2 vs vehicle, 4 h): 2.579
CREB5 log2Fold Change (Jurkat T cells; 10 μM BT2 vs vehicle, 4 h): 1.577
DMBT1 log2Fold Change (Jurkat T cells; 10 μM BT2 vs vehicle, 4 h): 1.424
DUSP8 log2Fold Change (Jurkat T cells; 10 μM BT2 vs vehicle, 4 h): 3.811
ENPP1 log2Fold Change (Jurkat T cells; 10 μM BT2 vs vehicle, 4 h): 2.594
EPAS1 log2Fold Change (Jurkat T cells; 10 μM BT2 vs vehicle, 4 h): 1.187
FAM166A log2Fold Change (Jurkat T cells; 10 μM BT2 vs vehicle, 4 h): −1.443
FERMT2 log2Fold Change (Jurkat T cells; 10 μM BT2 vs vehicle, 4 h): 1.127
FLNC log2Fold Change (Jurkat T cells; 10 μM BT2 vs vehicle, 4 h): 1.158
GBP1 log2Fold Change (Jurkat T cells; 10 μM BT2 vs vehicle, 4 h): 1.317
GBP2 log2Fold Change (Jurkat T cells; 10 μM BT2 vs vehicle, 4 h): 1.999
HIST1H2AC log2Fold Change (Jurkat T cells; 10 μM BT2 vs vehicle, 4 h): −1.445
HIST1H2AG log2Fold Change (Jurkat T cells; 10 μM BT2 vs vehicle, 4 h): −1.417
HIST2H2BE log2Fold Change (Jurkat T cells; 10 μM BT2 vs vehicle, 4 h): −1.273
IL2RA log2Fold Change (Jurkat T cells; 10 μM BT2 vs vehicle, 4 h): 2.06
JUN log2Fold Change (Jurkat T cells; 10 μM BT2 vs vehicle, 4 h): 2.561
JUND log2Fold Change (Jurkat T cells; 10 μM BT2 vs vehicle, 4 h): 1.29
KCNMB1 log2Fold Change (Jurkat T cells; 10 μM BT2 vs vehicle, 4 h): 1.455
MAF log2Fold Change (Jurkat T cells; 10 μM BT2 vs vehicle, 4 h): −1.032
MYL4 log2Fold Change (Jurkat T cells; 10 μM BT2 vs vehicle, 4 h): 2.052
NPAS4 log2Fold Change (Jurkat T cells; 10 μM BT2 vs vehicle, 4 h): 1.211
NTN1 log2Fold Change (Jurkat T cells; 10 μM BT2 vs vehicle, 4 h): 6.501
PRKCE log2Fold Change (Jurkat T cells; 10 μM BT2 vs vehicle, 4 h): 1.177
PRRT1 log2Fold Change (Jurkat T cells; 10 μM BT2 vs vehicle, 4 h): −1.322
SIRPB2 log2Fold Change (Jurkat T cells; 10 μM BT2 vs vehicle, 4 h): 1.912
SPECC1L-ADORA2A log2Fold Change (Jurkat T cells; 10 μM BT2 vs vehicle, 4 h): 1.096
TEAD3 log2Fold Change (Jurkat T cells; 10 μM BT2 vs vehicle, 4 h): 1.133
TIMP3 log2Fold Change (Jurkat T cells; 10 μM BT2 vs vehicle, 4 h): 1.85
TUBA1A log2Fold Change (Jurkat T cells; 10 μM BT2 vs vehicle, 4 h): −1.19
TUBA1B log2Fold Change (Jurkat T cells; 10 μM BT2 vs vehicle, 4 h): −1.394
TUBA1C log2Fold Change (Jurkat T cells; 10 μM BT2 vs vehicle, 4 h): −1.121
TUBA4A log2Fold Change (Jurkat T cells; 10 μM BT2 vs vehicle, 4 h): −1.253
TUBB2A log2Fold Change (Jurkat T cells; 10 μM BT2 vs vehicle, 4 h): −1.005
TUBB3 log2Fold Change (Jurkat T cells; 10 μM BT2 vs vehicle, 4 h): −1.262
TUBB4B log2Fold Change (Jurkat T cells; 10 μM BT2 vs vehicle, 4 h): −1.52
ZYX log2Fold Change (Jurkat T cells; 10 μM BT2 vs vehicle, 4 h): 1.537
effect on FOS like 2 expression (Jurkat T cells; 10 μM, 4 h): negligible effects
effect on FOSB expression (Jurkat T cells; 10 μM, 4 h): negligible effects
increase of DUSP8 mRNA expression (Jurkat T cells; 10 μM, 4 h): 14.1 fold
increase of JUND levels (Jurkat T cells; 10 μM, 4 h): 2.4 fold
increase of netrin-1 (NTN1) (Jurkat T cells; 10 μM, 4 h): 90.6 fold
inhibition of MAF expression (Jurkat T cells; 10 μM, 4 h): 2 fold
JUN induction (Jurkat T cells; 10 μM, within 4 h): 5.9 fold
